Article PMC4467398, “Preclinical antitumor activity of ST7612AA1: a new oral thiol-based histone deacetylase (HDAC) inhibitor” (Oncotarget, 2014)
Entries after “also recorded” stand apart in the source; their conditions may differ.

Tests used:
[1] = test system: Breast cancer MDA-MB436; assay: In vitro proliferation assay (sulphorodamine B); type: cell-based; conditions: Homo sapiens, MDA-MB-436, 72 h, mean ± S.E.M.
[2] = test system: Breast cancer MCF-7; assay: In vitro proliferation assay; type: cell-based; conditions: Homo sapiens, MCF7, 72 h, mean ± S.E.M.
Description: (§1) Anti-proliferative activity was first assessed on a panel of cell lines derived from solid tumors and hematological cancers and then on a large panel of cell lines derived from mature B-cell lymphomas. […] Lymphoma cells were seeded in 96-wells tissue culture plates in complete medium and were exposed to increasing concentrations of ST7612AA1 for 48 or 72 h; the anti-proliferative activity was assessed using 3-(4,5-dimethylthiazol-2-yl)-2,5-diphenyltetrazolium bromide (MTT). The drug potency was evaluated by means of the “ALLFIT” computer program and defined as IC50 (drug concentration required for 50% inhibition of cell survival).

[3] = test system: NSCLC NCI-H460; assay: In vitro proliferation assay (sulphorodamine B); type: cell-based; conditions: Homo sapiens, 72 h, mean ± S.E.M.
[4] = test system: Chronic myeloid leukemia K562; assay: In vitro proliferation assay (sulphorodamine B); type: cell-based; conditions: Homo sapiens, 72 h, mean ± S.E.M.
[5] = test system: ABC-DLBCL OCI-Ly10; assay: In vitro proliferation assay (MTT); type: cell-based; conditions: Homo sapiens, 72 h, mean ± S.E.M.
Description: as §1

[6] = test system: ABC-DLBCL TMD8; assay: In vitro proliferation assay (MTT); type: cell-based; conditions: Homo sapiens, 72 h, mean ± S.E.M.
Description: as §1

[7] = test system: ABC-DLBCL U2932; assay: In vitro proliferation assay (MTT); type: cell-based; conditions: Homo sapiens, 72 h, mean ± S.E.M.
Description: as §1

[8] = test system: GCB-DLBCL DOHH2; assay: In vitro proliferation assay (MTT); type: cell-based; conditions: Homo sapiens, DOHH-2, 72 h, mean ± S.E.M.
Description: as §1

[9] = test system: GCB-DLBCL Karpas422; assay: In vitro proliferation assay (MTT); type: cell-based; conditions: Homo sapiens, KARPAS-422, 72 h, mean ± S.E.M.
Description: as §1

[10] = test system: GCB-DLBCL OCI-Ly7; assay: In vitro proliferation assay (MTT); type: cell-based; conditions: Homo sapiens, 72 h, mean ± S.E.M.
Description: as §1

[11] = test system: GCB-DLBCL OCI-Ly8; assay: In vitro proliferation assay (MTT); type: cell-based; conditions: Homo sapiens, 72 h, mean ± S.E.M.
Description: as §1

[12] = test system: GCB-DLBCL SUDHL-4; assay: In vitro proliferation assay (MTT); type: cell-based; conditions: Homo sapiens, SU-DHL-4, 72 h, mean ± S.E.M.
Description: as §1

[13] = test system: GCB-DLBCL SUDHL-6; assay: In vitro proliferation assay (MTT); type: cell-based; conditions: Homo sapiens, SU-DHL-6, 72 h, mean ± S.E.M.
Description: as §1

[14] = test system: GCB-DLBCL VAL; assay: In vitro proliferation assay (MTT); type: cell-based; conditions: Homo sapiens, 72 h, mean ± S.E.M.
Description: as §1

[15] = test system: Mantle cell lymphoma Granta-519; assay: In vitro proliferation assay (MTT); type: cell-based; conditions: Homo sapiens, 72 h, mean ± S.E.M.
Description: as §1

[16] = test system: Mantle cell lymphoma Jeko-1; assay: In vitro proliferation assay (MTT); type: cell-based; conditions: Homo sapiens, 72 h, mean ± S.E.M.
Description: as §1

[17] = test system: Mantle cell lymphoma MAVER1; assay: In vitro proliferation assay (MTT); type: cell-based; conditions: Homo sapiens, 72 h, mean ± S.E.M.
Description: as §1

[18] = test system: Mantle cell lymphoma REC-1; assay: In vitro proliferation assay (MTT); type: cell-based; conditions: Homo sapiens, Rec1, 72 h, mean ± S.E.M.
Description: as §1

[19] = test system: Splenic marginal zone lymphoma K1718; assay: In vitro proliferation assay (MTT); type: cell-based; conditions: Homo sapiens, 72 h, mean ± S.E.M.
Description: as §1

[20] = test system: Splenic marginal zone lymphoma SSK41; assay: In vitro proliferation assay (MTT); type: cell-based; conditions: Homo sapiens, 72 h, mean ± S.E.M.
Description: as §1

[21] = test system: Splenic marginal zone lymphoma VL51; assay: In vitro proliferation assay (MTT); type: cell-based; conditions: Homo sapiens, 72 h, mean ± S.E.M.
Description: as §1

[22] = test system: T-cell lymphoma HUT78; assay: In vitro proliferation assay (MTT); type: cell-based; conditions: Homo sapiens, 72 h, mean ± S.E.M.
Description: as §1

[23] = test system: GCB-DLBCL model DOHH2; assay: In vivo lymphoma xenograft model; parameters: species or system NOD-SCID mice; conditions: po at days 12, 13, 15, 16, 18, 19 after tumor injection; vs control mice
Description: The in vivo experiment with lymphoma model was performed in the IOR laboratory according to study protocols approved by the local Cantonal Veterinary Authority (No. 5/2011). At day 1, tumors were established by injecting DOHH2 lymphoma cells (200 μL of PBS, 8×10^6 cells/mouse) into the left flanks of 5-weeks old female NOD-SCID mice (Harlan Laboratories). Tumor size was measured on regular basis and until tumors reached around […] in diameter (day 12). Then, treatments were conducted at day 12, 13, 15, 16, 18, 19. Tumors were measured at 12, 14, 17, 21, 25 days. Tumor volumes were calculated as described above. Mice were sacrificed when physical conditions became critical or when tumors reached a weight of about 0.5 gr. For comparison between a control and a treatment group, an unpaired Mann-Whitney's test was used. A P-value <0.05 was considered significant.

SMILES: CC(=O)SCCCCC[C@H](NC(=O)[C@H]1CCC(=O)N1)C(=O)Nc1ccccc1 [ST7612AA1]
- IC50 [1]: 180 ± 10 nM
- IC50 [2]: 190 nM
- IC50 [3]: 66 ± 10 nM
- IC50 [4]: 190 ± 20 nM
- IC50 [5]: 260 nM
- IC50 [6]: 100 ± 30 nM
- IC50 [7]: 800 nM
- IC50 [8]: 46 ± 10 nM
- IC50 [9]: 2660 nM
- IC50 [10]: 560 nM
- IC50 [11]: 240 nM
- IC50 [12]: 980 nM
- IC50 [13]: 630 nM
- IC50 [14]: 2360 nM
- IC50 [15]: 470 nM
- IC50 [16]: 250 ± 10 nM
- IC50 [17]: 390 nM
- IC50 [18]: 550 nM
- IC50 [19]: 100 ± 10 nM
- IC50 [20]: 260 nM
- IC50 [21]: 120 nM
- IC50 [22]: 480 ± 20 nM
- tumor progression / tumor volumes [23]: decreased tumor volumes; also recorded: significant delay in tumor progression
